From PubChem BioAssay (NCI)
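96-well plates; 48 h exposure; 5 concentrations. Endpoints by linear interpolation between flanking doses. Not reached: highest tested concentration assigned. GI50 is the concentration that inhibits growth by half. TGI denotes the concentration required for complete inhibition of growth.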

Key:
Experiment in all cases: NCI anticancer screen, dose series, 48 h
SK-MEL-2 melanoma = system: SK-MEL-2 melanoma
IGROV1 ovarian = system: IGROV1 ovarian
HOP-92 NSCLC = system: HOP-92 NSCLC
OVCAR-4 ovarian = system: OVCAR-4 ovarian
OVCAR-3 ovarian = system: OVCAR-3 ovarian
A549 NSCLC = system: A549 NSCLC
NCI-H460 lung = system: NCI-H460 lung
OVCAR-8 ovarian = system: OVCAR-8 ovarian
ACHN renal = system: ACHN renal
NCI/ADR-RES ovarian = system: NCI/ADR-RES ovarian

| SMILES | GI50 (SK-MEL-2 melanoma) [µM] | TGI (SK-MEL-2 melanoma) [µM] | GI50 (IGROV1 ovarian) [µM] | TGI (IGROV1 ovarian) [µM] | GI50 (HOP-92 NSCLC) [µM] | TGI (HOP-92 NSCLC) [µM] | GI50 (OVCAR-4 ovarian) [µM] | TGI (OVCAR-4 ovarian) [µM] | GI50 (OVCAR-3 ovarian) [µM] | TGI (OVCAR-3 ovarian) [µM] | GI50 (A549 NSCLC) [µM] | TGI (A549 NSCLC) [µM] | GI50 (NCI-H460 lung) [µM] | TGI (NCI-H460 lung) [µM] | GI50 (OVCAR-8 ovarian) [µM] | TGI (OVCAR-8 ovarian) [µM] | GI50 (ACHN renal) [µM] | TGI (ACHN renal) [µM] | GI50 (NCI/ADR-RES ovarian) [µM] | TGI (NCI/ADR-RES ovarian) [µM] |
| --- | --- | --- | --- | --- | --- | --- | --- | --- | --- | --- | --- | --- | --- | --- | --- | --- | --- | --- | --- | --- |
| CC(=O)CCC[C@@H](C)[C@@H]1O[C@H]([C@@]2(C)CCC(=O)O2)CC2[C@H]1OC(=O)C21CC1 (stereo partly specified) | > 100 | > 100 | 55 | > 100 | > 100 | > 100 | > 100 | > 100 | > 100 | > 100 | > 100 | > 100 | 39.7 | > 100 | > 100 | > 100 | > 100 | > 100 | 71.3 | > 100 |
| CCNCCS(=O)(=O)NC[C@@]1(c2ccccc2)SC(NC(=O)C(C)(C)C)=NN1C(=O)C(C)(C)C | < 0.01 | 28.4 | 2.9 | > 100 |  | > 82.1 | 35.5 | > 100 | < 0.01 | > 100 | < 0.01 | > 100 | < 0.01 | > 41.9 | < 0.0117 | > 100 | 4.9 | > 100 | 4.11 | > 45.8 |
| CCCCCCCCCCCCCCCC(=O)OCC1OC(OCCCC)[C@H](O[C@@H]2OC(C)C(OC(=O)CCC)C(O)C2O)C(O)C1O (stereo partly specified) | 41.2 | > 100 | 23.1 | > 100 | 17 | 33.2 | 18.1 | 34.2 | 13.4 | 29.6 | 17.4 | 34 | 22.4 | 57.8 | 17 | 32.9 | 18.1 | 35.2 | 18 | 32.3 |
| Oc1c(Cl)cc(Cl)c(Cl)c1Cc1c(O)c(Cl)cc(Cl)c1Cl | 0.497 | 3.48 | 1.87 | 23.6 | 0.274 | 0.682 | 2.52 | 14 | 1.34 | 8.47 | 1.99 | 12.9 | 0.534 | 12.5 | 0.941 | 16.5 | 2.27 | 31.3 | 0.453 | 10.8 |
| Cc1cc2c3c(nc4ccccc42)C(=O)c2cccnc2-c3n1 | 1.48 | 3.82 | 0.0658 | 0.383 | 0.941 | 8.52 | 1.28 | 4.27 |  | 0.0263 | 0.372 | 1.84 | 0.162 | 1.06 | 0.453 |  | 0.0327 | 1.45 | 0.489 |  |
| Nc1ncc(-c2ccc3ncnc(N4CCc5cc(F)c(Cl)cc54)c3c2)cc1C=O | 1.59 | 6.05 | 0.314 | 2.39 | 0.149 | 1.46 | 2.98 | > 100 | 1.66 | > 100 | 0.949 | 12.5 | 0.814 | > 100 | 2.54 | > 100 | 0.638 | > 100 | 2.82 | > 100 |
| O=C(O)C1CC[N-]CC1.O=C(O)C1CC[N-]CC1.[NH2-].[NH2-].[Pt+4] | > 100 | > 100 | > 100 | > 100 | > 100 | > 100 | > 100 | > 100 | > 100 | > 100 | > 100 | > 100 | > 100 | > 100 | > 100 | > 100 | > 100 | > 100 | > 100 | > 100 |
| CC(C)(Oc1cccc(N2CCC[C@@H](C(=O)N(Cc3ccc(-c4cn[nH]c4)cc3)C3CC3)C2)c1)C(=O)N1CCNCC1 | 14.3 | 28 | 12.3 | 26.8 | 9.9 | 23.8 | 11.1 | 25.2 | 12.4 | 26 | 14.1 | 32.2 | 12.3 | 27.2 | 18.6 | 42.7 | 16.1 | 29.6 | 24.1 | 73.6 |
| O=C(O)c1cc(-c2ccc(-c3ccccc3)cc2)nc2cc3ccccc3cc12 |  | > 100 |  | > 100 |  | 82.2 |  | > 100 |  | > 100 |  | > 100 |  | > 100 |  | > 100 |  | > 100 |  | > 100 |
| Nc1nc(N)c2c(Cl)c(CNc3ccc(Cl)c(Cl)c3)ccc2n1 |  | 16.7 |  | 13.4 |  | 9.36 |  | 16.9 |  | 11 |  | 14.5 |  | 11.4 |  | 16 |  | 14 |  | 18.7 |
| CCCCNC(=O)CC1=C(C)/C(=C/c2[nH]c(-c3ccc[nH]3)cc2OC)N=C1C | 1.72 | 3.87 | 3.23 | 10.3 | 2.17 | 7.09 | 2.12 | 19.2 | 2.58 | 9.77 | 3.6 | 11.2 | 2.71 | 11.7 | 3.44 | 11.1 | 2.26 | 5.64 | 3.02 | 9.89 |
| O=C1NC(=NCCc2ccccc2F)S/C1=C\c1ccc2ncccc2c1 | 6.16 | 14.5 | 7.02 | > 25 | 7.84 | > 25 | 6.45 | > 20.6 | 7.35 | 24.2 | 5.39 | > 25 | 6.57 | > 25 | 9.65 | > 25 | 9.06 | > 25 | 9.2 | > 25 |
| C/C(=N\O)C1CC(CC(=O)O)C1(C)C (stereo unspecified) |  | > 100 |  | > 100 |  | > 100 |  | > 100 |  | > 100 |  | > 100 |  | > 100 |  | > 100 |  | > 100 |  | > 100 |
| CCc1nc(N)nc(N)c1-c1ccc(N2CCNCC2)c([N+](=O)[O-])c1 |  | > 90.5 |  | > 100 |  | > 100 |  | > 100 |  | > 100 |  | > 100 |  | > 100 |  | > 100 |  | > 100 |  | > 100 |
| CN(C)Cc1ccc(O)c(CN(C)C)n1 |  | > 100 |  | > 100 |  | > 100 |  | > 100 |  | > 100 |  | > 100 |  | > 100 |  | > 100 |  | > 100 |  | > 100 |
